The structures appear in SMILES notation.

The target in the assay is T1, full length active recombinant SYK enzyme (Homo sapiens, UniProt P43405).
T1 construct: full length active recombinant SYK enzyme (Millipore, Calif.); purchased Millipore
The assay is described as follows: Inhibition of Syk tyrosine phosphorylation activity (LANCE TR-FRET kinase assay). Particulars: activity in the Syk assays, class symbols. In kind it is biochemical. The method in brief: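 IC50 was derived by non-linear regression of TR-FRET signal (Eu-W1024-PY100 donor, streptavidin-APC acceptor) read 1 h after EDTA quench. The kinase step ran 1 h at room temperature with 1 nM full-length SYK, 550 nM biotinylated DEEDYESP substrate and 100 μM ATP in Tris pH 7.5/MgCl2/DTT at 3% final DMSO.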
As for `NC(=O)c1ncc(N[C@@H]2CCCC[C@@H]2N)nc1Nc1cnc2ccc(F)cc2c1` [Example 198, 5-((1R,2S)-2-aminocyclohexylamino)-3-(6-fluoroquinolin-3-ylamino)pyrazine-2-carboxamide], the concentration for half-maximal inhibition (IC50) lay in the range of 1 to 10 nM. The result for `NC(=O)c1ncc(N[C@@H]2CCCC(F)(F)[C@@H]2N)nc1Nc1cncc2ccccc12` [Example 363, 5-((1R,2R)-2-amino-3,3-difluorocyclohexylamino)-3-(isoquinolin-4-ylamino)pyrazine-2-carboxamide] reads 10 to 100 nM; that for `CN(C)C(=O)c1cc(Nc2nc(N[C@@H]3CCCC[C@@H]3N)cnc2C(N)=O)ccc1F` [Example 284, 5-((1R,2S)-2-aminocyclohexylamino)-3-(3-(dimethylcarbamoyl)-4-fluorophenylamino)pyrazine-2-carboxamide], 100 to 1000 nM; that for `NC(=O)c1ncc(N[C@@H]2CCCC[C@@H]2N)nc1Nc1ccc2[nH]ncc2c1` (racemic) [Example 54, cis-3-(1H-indazol-5-ylamino)-5-(2-aminocyclohexylamino)pyrazine-2-carboxamide], under 1 nM.

Turning to `CC(C)[C@@H](Nc1cnc(C(N)=O)c(Nc2cnc3cccnc3c2)n1)C(N)=O` [Example 193, (R)-3-(1,5-naphthyridin-3-ylamino)-5-(1-amino-3-methyl-1-oxobutan-2-ylamino)pyrazine-2-carboxamide], the 50% inhibitory concentration (IC50) was in the range of 10 to 100 nM. For `NC(=O)c1ncc(N[C@H]2CN[C@@H](CO)C2)nc1Nc1cnc2ccc(F)cc2c1` [Example 140, 3-((6-fluoroquinolin-3-yl)amino)-5-(((3R,5R)-5-(hydroxymethyl)pyrrolidin-3-yl)amino)pyrazine-2-carboxamide] the value was 1 to 10 nM. The result for `CC(C)(C)[C@@H](Nc1cnc(C(N)=O)c(Nc2ccc3ncccc3c2)n1)C(N)=O` [Example 192, (R)-5-(1-amino-3,3-dimethyl-1-oxobutan-2-ylamino)-3-(quinolin-6-ylamino)pyrazine-2-carboxamide] reads 1 to 10 nM; that for `COc1cncc(Nc2nc(N[C@@H]3CCOC[C@@H]3N)cnc2C(N)=O)c1` [Example 358, 5-((3R,4R)-3-aminotetrahydro-2H-pyran-4-ylamino)-3-(5-methoxypyridin-3-ylamino)pyrazine-2-carboxamide], 1 to 10 nM; that for `NC(=O)c1ncc(N[C@@H]2CCCC[C@@H]2N)nc1Nc1ccc(C(=O)N2CCC2)cc1` [Example 295, 5-((1R,2S)-2-aminocyclohexylamino)-3-(4-(azetidine-1-carbonyl)phenylamino)pyrazine-2-carboxamide], 1 to 10 nM. For `CC[C@@H](Nc1cnc(C(N)=O)c(Nc2ccnc3ccccc23)n1)C(N)=O` [Example 370, (R)-5-(1-amino-1-oxobutan-2-ylamino)-3-(quinolin-4-ylamino)pyrazine-2-carboxamide] the value was 1 to 10 nM; for `CC(C)(C)C[C@@H](Nc1cnc(C(N)=O)c(Nc2ccnc(F)c2)n1)C(N)=O` [Example 265, (R)-5-(1-amino-4,4-dimethyl-1-oxopentan-2-ylamino)-3-(2-fluoropyridin-4-ylamino)pyrazine-2-carboxamide], 1 to 10 nM; for `CCc1ccc(Nc2nc(N[C@@H]3CCCC[C@@H]3N)cnc2C(N)=O)cn1` [Example 350, 5-((1R,2S)-2-aminocyclohexylamino)-3-(6-ethylpyridin-3-ylamino)pyrazine-2-carboxamide], 1 to 10 nM. For the compound `NC(=O)c1ncc(NC2(C(N)=O)CC2)nc1Nc1cnc2ccc(F)cc2c1` [Example 175, 5-(1-carbamoylcyclopropylamino)-3-(6-fluoroquinolin-3-ylamino)pyrazine-2-carboxamide], the half-maximal inhibitory concentration (IC50) fell in the range of 1 to 10 nM. The result for `CC[C@@H](Nc1cnc(C(N)=O)c(Nc2cnn(C3CC3)c2)n1)C(N)=O` [Example 260, (R)-5-(1-amino-1-oxobutan-2-ylamino)-3-(1-cyclopropyl-1H-pyrazol-4-ylamino)pyrazine-2-carboxamide] reads 100 to 1000 nM; that for `NC(=O)c1ncc(N[C@@H]2CCCC[C@@H]2N)nc1Nc1cncc(C(F)(F)F)c1` [Example 197, 5-((1R,2S)-2-aminocyclohexylamino)-3-(5-(trifluoromethyl)pyridin-3-ylamino)pyrazine-2-carboxamide], 1 to 10 nM; that for `Cn1ccc2c(Nc3nc(N[C@@H]4CCCC[C@@H]4N)cnc3C(N)=O)cccc21` [Example 11, 5-((1R,2S)-2-aminocyclohexylamino)-3-(1-methyl-1H-indol-4-ylamino)pyrazine-2-carboxamide], 1 to 10 nM. For `NC(=O)c1ncc(N[C@@H]2CCCC[C@@H]2N)nc1N[C@H]1CCc2ccccc21` [Example 39, 5-((1R,2S)-2-aminocyclohexylamino)-3-((S)-2,3-dihydro-1H-inden-1-ylamino)pyrazine-2-carboxamide] the value was 100 to 1000 nM; for `NC(=O)c1ncc(N[C@@H]2CCCC[C@@H]2N)nc1NC1Cc2ccccc2C1` [Example 37, 5-((1R,2S)-2-aminocyclohexylamino)-3-(2,3-dihydro-1H-inden-2-ylamino)pyrazine-2-carboxamide], 10 to 100 nM; for `Cc1ccc(Nc2nc(N[C@H](CC(F)F)C(N)=O)cnc2C(N)=O)cc1C` [Example 122, (R)-5-((1-amino-4,4-difluoro-1-oxobutan-2-yl)amino)-3-((3,4-dimethylphenyl)amino)pyrazine-2-carboxamide], under 1 nM. For `CC(C)C[C@@H](Nc1cnc(C(N)=O)c(Nc2ccc(C3CC3)nc2)n1)C(N)=O` [Example 348, (R)-5-(1-amino-4-methyl-1-oxopentan-2-ylamino)-3-(6-cyclopropylpyridin-3-ylamino)pyrazine-2-carboxamide] the value was 1 to 10 nM; for `CC(C)[C@@H](Nc1cnc(C(N)=O)c(Nc2ccc(OCC(F)(F)F)nc2)n1)C(N)=O` [Example 327, (R)-5-(1-amino-3-methyl-1-oxobutan-2-ylamino)-3-(6-(2,2,2-trifluoroethoxy)pyridin-3-ylamino)pyrazine-2-carboxamide], 100 to 1000 nM.

For `CCc1ccc(Nc2nc(N[C@@H]3CCCC(F)(F)[C@@H]3N)cnc2C(N)=O)cn1` [Example 343, 5-((1R,2R)-2-amino-3,3-difluorocyclohexylamino)-3-(6-ethylpyridin-3-ylamino)pyrazine-2-carboxamide], the IC50 is 100 to 1000 nM. For `CC[C@@H](Nc1cnc(C(N)=O)c(Nc2ccc(C(=O)N(C)C)cc2)n1)C(N)=O` [Example 299, (R)-5-(1-amino-1-oxobutan-2-ylamino)-3-(4-(dimethylcarbamoyl)phenylamino)pyrazine-2-carboxamide] the value was 100 to 1000 nM; for `NC(=O)c1ncc(N[C@@H]2CCCC(F)(F)[C@@H]2N)nc1Nc1cnn2ccccc12` [Example 447, 5-(((1R,2R)-2-amino-3,3-difluorocyclohexyl)amino)-3-(pyrazolo[1,5-a]pyridin-3-ylamino)pyrazine-2-carboxamide], 1 to 10 nM; for `NC(=O)c1ncc(N[C@@H]2CCCC[C@@H]2N)nc1Nc1ccnnc1` [Example 213, 5-((1R,2S)-2-aminocyclohexylamino)-3-(pyridazin-4-ylamino)pyrazine-2-carboxamide], 10 to 100 nM. As for `COc1cc(Nc2nc(N[C@@H](C(N)=O)C(C)C)cnc2C(N)=O)ccn1` [Example 315, (R)-5-(1-amino-3-methyl-1-oxobutan-2-ylamino)-3-(2-methoxypyridin-4-ylamino)pyrazine-2-carboxamide], the IC50 fell in the range of 10 to 100 nM.

On to `CN1Cc2cc(Nc3nc(N[C@@H]4CCCC[C@@H]4N)cnc3C(N)=O)ccc2C1=O` [Example 339, 5-((1R,2S)-2-aminocyclohexylamino)-3-(2-methyl-1-oxoisoindolin-5-ylamino)pyrazine-2-carboxamide], for which the concentration for half-maximal inhibition (IC50) was under 1 nM. The result for `CC[C@@H](Nc1cnc(C(N)=O)c(Nc2cncc(OC)c2)n1)C(N)=O` [Example 322, (R)-5-(1-amino-1-oxobutan-2-ylamino)-3-(5-methoxypyridin-3-ylamino)pyrazine-2-carboxamide] reads 100 to 1000 nM; that for `CC[C@@H](Nc1cnc(C(N)=O)c(Nc2ccc(-n3ccnc3)cc2)n1)C(N)=O` [Example 80, (R)-3-(4-(1H-imidazol-1-yl)phenylamino)-5-(1-amino-1-oxobutan-2-ylamino)-pyrazine-2-carboxamide], 1 to 10 nM; that for `CC(C)(C)c1cc(Nc2nc(N[C@H](CC3CC3)C(N)=O)cnc2C(N)=O)sn1` [Example 229, (R)-5-(1-amino-3-cyclopropyl-1-oxopropan-2-ylamino)-3-(3-tert-butylisothiazol-5-ylamino)pyrazine-2-carboxamide], 10 to 100 nM. The result for `COc1ccc(Nc2nc(N[C@@H]3CCCC[C@@H]3N)cnc2C(N)=O)cn1` [Example 296, 5-((1R,2S)-2-aminocyclohexylamino)-3-(6-methoxypyridin-3-ylamino)pyrazine-2-carboxamide] reads 1 to 10 nM. For `CC[C@@H](Nc1cnc(C(N)=O)c(Nc2ccnc(F)c2)n1)C(N)=O` [Example 264, (R)-5-(1-amino-1-oxobutan-2-ylamino)-3-(2-fluoropyridin-4-ylamino)pyrazine-2-carboxamide] the value was 10 to 100 nM; for `NC(=O)c1ncc(N[C@@H]2CCCC[C@@H]2N)nc1Nc1ccnc2ncccc12` [Example 437, 3-((1,8-naphthyridin-4-yl)amino)-5-(((1R,2S)-2-aminocyclohexyl)amino)pyrazine-2-carboxamide], 1 to 10 nM; for `CN(C)C(=O)c1ccc(F)c(Nc2nc(N[C@@H]3CCCC[C@@H]3N)cnc2C(N)=O)c1` [Example 288, 5-((1R,2S)-2-aminocyclohexylamino)-3-(5-(dimethylcarbamoyl)-2-fluorophenylamino)pyrazine-2-carboxamide], 100 to 1000 nM.

Source of the values: patent US9359308B2, “Pyrazine kinase inhibitors” (Portola Pharmaceuticals, Inc., priority 2011, dated 2016).
